Assay results reported in PubChem BioAssay (NCI).
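1) Cells in 96-well plates. 2) Compound, 48 h, 5 concentrations. 3) Linear interpolation between surrounding doses. 4) Unreached endpoint = highest concentration. At the TGI there is no net growth.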

Columns and labels:
Assay in all cases: NCI tumour cell line growth inhibition, 48 h
[1] = system: 786-0 renal
[2] = system: HS 578T breast
[3] = system: MDA-MB-435
[4] = system: NCI-H23 lung
[5] = system: NCI-H460 lung
[6] = system: NCI/ADR-RES ovarian
[7] = system: OVCAR-3 ovarian
[8] = system: OVCAR-5 ovarian
[9] = system: RXF 393 renal
[10] = system: HCT-116 colon
[11] = system: K-562 leukemia

Structure (SMILES)	TGI [1]	TGI [2]	TGI [3]	TGI [4]	TGI [5]	TGI [6]	TGI [7]	TGI [8]	TGI [9]	TGI [10]	TGI [11]
Cc1[nH]c(=O)c2oc3cc4ccccc4cc3c2c1C(=O)O	> 10 µM	> 10 µM	> 10 µM	> 10 µM	> 10 µM	> 10 µM	> 10 µM	> 10 µM	> 10 µM		
N#CCc1nc(-c2cc3ccccc3oc2=O)cs1	> 100 µM	> 100 µM	> 100 µM		> 100 µM	> 100 µM		> 100 µM	> 100 µM	> 100 µM	> 100 µM
Cc1nc2ccc(S(=O)(=O)O)cc2c(=O)n1-c1ccc(C(=O)NN2C(=O)C(Cl)C2c2cccs2)cc1 (stereo unspecified)	> 100 µM	> 100 µM	89.8 µM	> 100 µM	> 100 µM	> 100 µM	> 100 µM	> 100 µM	> 100 µM	> 100 µM	> 100 µM
C(=C\c1cc[n+](CCc2ccccc2)cc1)/c1ccccc1	> 100 µM	54.6 µM	18.4 µM	43.7 µM	> 100 µM	> 100 µM	26.5 µM	88.5 µM	> 100 µM	65.4 µM	63.6 µM
N#CC1=C(S)N(C2OC(CO)C(O)C(O)C2O)C(c2ccccc2)=CC1c1ccco1 (stereo unspecified)	> 100 µM	> 100 µM	> 100 µM	> 100 µM	> 100 µM	> 100 µM	> 100 µM	> 100 µM	> 100 µM	> 100 µM	> 100 µM
O=C1/C(=C/c2ccc(Br)s2)NC(=S)N1CN1CCCCC1	> 100 µM	> 100 µM	> 100 µM	> 100 µM	> 100 µM	98.2 µM	59.6 µM	> 100 µM	60.7 µM	> 100 µM	59.8 µM
O=C(c1c(F)c(F)c(F)c(F)c1F)n1c(=S)n(C(=O)c2c(F)c(F)c(F)c(F)c2F)c2ccccc21	> 100 µM	> 100 µM			> 100 µM			> 100 µM		> 100 µM	51.5 µM
Cc1cc(C=O)c2c(=O)c3c(O)ccc(/C=C/C(C)C)c3oc2c1	> 100 µM			> 100 µM	> 100 µM		> 100 µM	> 100 µM		48.1 µM	> 100 µM
CC(C)(C)n1c(=O)n2c(-c3ccccc3)c(-c3ccccc3)n2c1=O	> 100 µM	> 100 µM	> 100 µM	> 100 µM	> 100 µM	> 100 µM	> 100 µM	> 100 µM	> 100 µM	> 100 µM	> 100 µM
COC(=O)N/N=c1\cc(C(=O)Nc2ccc(C)c(C)c2)oc2cc(O)ccc12	> 100 µM			> 100 µM	> 100 µM		> 100 µM	> 100 µM	> 100 µM	> 100 µM	> 100 µM
Nc1nccc(NCC2(CO)CC(CCc3ccccc3)C2)n1 (stereo unspecified)	27.8 µM	52.9 µM	28.7 µM	41.4 µM	28.4 µM	75.7 µM	38.9 µM	34.2 µM	36 µM	23 µM	45.5 µM
COC(=O)C1=C(OC)C(=P2(c3ccccc3)CC(c3ccccc3)=C2c2ccccc2)C(C(=O)OC)=C1C(=O)OC (stereo unspecified)	> 100 µM	> 100 µM	> 100 µM	> 100 µM	> 81.7 µM	> 100 µM	> 100 µM	> 100 µM	> 100 µM	> 100 µM	
CN(Cc1cccc2ccsc12)/N=C\c1ccc(Cl)cc1	> 100 µM	> 100 µM	> 100 µM	> 100 µM	> 100 µM	> 100 µM	48.3 µM	> 100 µM	> 100 µM	> 100 µM	> 100 µM
Cc1nc2ccc(N=Nc3c(C)noc3C)cc2[nH]1	> 100 µM	58.4 µM	> 100 µM	> 100 µM	> 100 µM	> 100 µM	84.2 µM	> 100 µM	52.4 µM	91.4 µM	> 100 µM
COc1ccc(NC(=S)c2ccc([N+](=O)[O-])o2)cc1	4.99 µM	> 43.1 µM	5.66 µM	5.52 µM	5.72 µM	12.2 µM	4.42 µM	9.53 µM	5.01 µM	3.12 µM	7.55 µM
CCOc1ccc(OP2(=O)NC(=O)C=C(C)N2)cc1 (stereo unspecified)	> 100 µM			> 100 µM	> 100 µM		> 100 µM	> 100 µM	> 100 µM	> 100 µM	> 100 µM
CC(C)C(=O)Cc1ccc2ccccc2n1	> 100 µM	> 100 µM	> 100 µM	> 100 µM	> 100 µM	> 100 µM	> 100 µM	> 100 µM	> 100 µM	> 100 µM	
CCN(CC)c1ccc(Cl)c2c1C(O)(C(C)C)C2(C)C (stereo unspecified)	27.7 µM			29 µM	33.9 µM		25.2 µM	30.6 µM	29.7 µM	27 µM	43.9 µM
CC(=O)Nc1ccc2c(c1)C(=O)c1ccccc1-2	> 100 µM			> 100 µM	> 100 µM		> 100 µM		> 100 µM	> 100 µM	> 100 µM
CCCCCCCCCCCCCCCCOP(=O)([O-])OCC[N+](C)(C)C1CC(C)(C)N(O)C(C)(C)C1	> 100 µM	> 100 µM	> 100 µM	> 100 µM	> 100 µM	> 100 µM	> 100 µM	> 100 µM	> 100 µM	> 100 µM	
COC(=O)[C@@H]1Cc2ccc(OC)c(c2)OCCC(=O)N1	> 100 µM	> 100 µM	> 100 µM	> 100 µM		> 100 µM	> 100 µM	> 100 µM	> 100 µM	> 100 µM	> 100 µM
COc1ccc(OC)c(/C=C2/C(=O)N=C(NC(C)=O)N2C)c1	> 100 µM	> 100 µM	> 100 µM	> 100 µM	> 100 µM	> 100 µM	> 100 µM	> 100 µM	> 100 µM	> 100 µM	
